According to patent US20250206722A1, “SMALL MOLECULE INHIBITORS OF TEA DOMAIN FAMILY MEMBERS” (The Scripps Research Institute, priority 2022, published 2025):

Columns and labels:
[1] = tested on: NCI-H226 cells; assay: NCI-H226 proliferation assay (in house); assay type: cell-based; details: Homo sapiens, 120 h, 5 days, Cell TiterGlo, 20-point 1:2 dilution from 20 μM
Method: NCI-H226 Proliferation Assay
NCI-H226 cells were obtained from American Type Culture Collection (ATCC, CRL-5826) and cultured in RPMI 1640 with L-glutamine (Corning, 10-040-CV) supplemented with 10% fetal bovine serum (Gibco, 10438-026) and 1% penicillin-streptomycin (Gibco, 15070063). Cells were trypsinized, resuspended in growth medium, and diluted to a concentrated of 10,000 cells/mL. 500 cells, 50 μL of cell suspension, per well were then plated in a white 384-well plate (Corning) and incubated at 37° C., 5% CO2. After 24 hours incubation, 100 nL of test compounds in DMSO, 20-point 1:2 dilution starting from 20 μM (final concentration) in triplicate, were transferred to each well using an Agilent Bravo instrument outfitted with a pintool head. Cells were incubated at 37° C., 5% CO2 for 5 days followed by the addition of 30 μL of Cell TiterGlo (Promega; diluted 1:6 in water) to each well and luminescence values recorded using an EnVision plate reader. […]

[2] = tested on: transcriptional activity of TEADs; assay: TEAD reporter assay (MCF7 TEAD-LUC reporter cells); assay type: cell-based; details: Homo sapiens, 24 hours, BrightGlo luminescence
Method: MCF7 TEAD-LUC reporter cells were obtained from BPS Bioscience, Inc. and cultured in DMEM medium (Corning, 10-013-CV) supplemented with 10% fetal bovine serum (Gibco, 10438-026), 1% penicillin-streptomycin (Gibco, 15070063), 1% non-essential amino acids (Gibco, 15070063), and 10 μg/mL insulin (Sigma, 10516). Cells were trypsinized, resuspended in growth medium, and diluted to a concentrated of 100,000 cells/mL. 5,000 cells, 50 μL of cell suspension, per well were then plated in a white 384-well plate (Corning) and incubated at 37° C., 5% CO2. After 24 hours incubation, 100 nL of test compounds in DMSO, 20-point 1:2 dilution starting from 20 μM (final concentration) in triplicate, were transferred to each well using an Agilent Bravo instrument outfitted with a pintool head. Cells were incubated at 37° C., 5% CO2 for 24 hours followed by the addition of 30 μL of BrightGlo (Promega; diluted 1:3 in water) to each well and luminescence values recorded using an EnVision plate reader.
The in vitro assay results of the compounds in the present invention were included in Table 1. The compounds described herein, inhibited the transcriptional activity of TEADs, as assessed by decreased luminance from a TEAD reporter cell line (MCF7 TEAD-LUC) in response to compound treatment.

SMILES | IC50 [1] | IC50 [2]
C=C(F)C(=O)N1CC=C(c2cccnc2Nc2ccc(C(F)(F)F)nc2)CC1 [Example 146, 2-fluoro-1-(2-((6-(trifluoromethyl)pyridin-3-yl)amino)-3′,6′-dihydro-[3,4′-bipyridin]-1′(2′H)-yl)prop-2-en-1-one] | 0.158 µM | 23.5 nM
C=C(F)C(=O)N1CC=C(c2cccnc2Nc2ccc(OC(F)(F)F)nc2)CC1 [Example 148, 2-fluoro-1-(2-((6-(trifluoromethoxy)pyridin-3-yl)amino)-3′,6′-dihydro-[3,4′-bipyridin]-1′(2′H)-yl)prop-2-en-1-one] | 0.341 µM | 66 nM
C=CC(=O)N1CCC(c2cccnc2Nc2ccc(C(F)(F)F)nc2)CC1 [Example 149, 1-(4-(2-((6-(trifluoromethyl)pyridin-3-yl)amino)pyridin-3-yl)piperidin-1-yl)prop-2-en-1-one] | 2.71 µM | 164 nM
C=C(F)C(=O)N1CCC(c2cccnc2Nc2ccc(C(F)(F)F)nc2)CC1 [Example 150, 2-fluoro-1-(4-(2-((6-(trifluoromethyl)pyridin-3-yl)amino)pyridin-3-yl)piperidin-1-yl)prop-2-en-1-one] | 39.5 µM | 4430 nM
C=CC(=O)N1CCC(c2cccnc2Nc2ccc(OC(F)(F)F)nc2)CC1 [Example 151, 1-(4-(2-((6-(trifluoromethoxy)pyridin-3-yl)amino)pyridin-3-yl)piperidin-1-yl)prop-2-en-1-one] | 1.05 µM | 188 nM
C=C(F)C(=O)N1CCC(c2cccnc2Nc2ccc(OC(F)(F)F)nc2)CC1 [Example 152, 2-fluoro-1-(4-(2-((6-(trifluoromethoxy)pyridin-3-yl)amino)pyridin-3-yl)piperidin-1-yl)prop-2-en-1-one] | 22.2 µM | 13500 nM
C=C(F)C(=O)N1CCC(c2cccnc2Oc2ccc(C(F)(F)F)nc2)CC1 [Example 156, 2-fluoro-1-(4-(2-((6-(trifluoromethyl)pyridin-3-yl)oxy)pyridin-3-yl)piperidin-1-yl)prop-2-en-1-one] | 0.083 µM | 13.7 nM
C=C(F)C(=O)N1CC=C(c2cccnc2Oc2cnc(C(F)(F)F)nc2)CC1 [Example 158, 2-fluoro-1-(2-((2-(trifluoromethyl)pyrimidin-5-yl)oxy)-3′,6′-dihydro-[3,4′-bipyridin]-1′(2′H)-yl)prop-2-en-1-one] | 0.027 µM | 3.9 nM
C=C(F)C(=O)N1CCC(c2cccnc2Oc2cnc(C(F)(F)F)nc2)CC1 [Example 160, 2-fluoro-1-(4-(2-((2-(trifluoromethyl)pyrimidin-5-yl)oxy)pyridin-3-yl)piperidin-1-yl)prop-2-en-1-one] | 2.94 µM | 1650 nM
C=CC(=O)N1CCN(c2ncccc2C(=O)N2CCC(F)(F)CC2)CC1 [Example 161, 1-(4-(3-(4,4-difluoropiperidine-1-carbonyl)pyridin-2-yl)piperazin-1-yl)prop-2-en-1-one] | > 20 µM | 1730 nM
C=CC(=O)N1CCN(c2ccccc2Nc2ccc(C(F)(F)F)cc2)CC1 [Example 162, 1-(4-(2-((4-(trifluoromethyl)phenyl)amino)phenyl)piperazin-1-yl)prop-2-en-1-one] | 0.192 µM | 1.1 nM
C=CC(=O)N1CCC(n2ccc(C(=O)c3ccc(C(F)(F)F)cc3)n2)CC1 [Example 163, 1-(4-(3-(4-(trifluoromethyl)benzoyl)-1H-pyrazol-1-yl)piperidin-1-yl)prop-2-en-1-one] | 5 µM | 10000 nM
C=CC(=O)N1CCC(n2nc(C(=O)c3ccc(C(F)(F)F)cc3)cc2C)CC1 [Example 165, 1-(4-(5-methyl-3-(4-(trifluoromethyl)benzoyl)-1H-pyrazol-1-yl)piperidin-1-yl)prop-2-en-1-one] | 5 µM | 19.8 nM
C=C(C)C(=O)N1CCN(c2nccnc2Nc2ccc(C(F)(F)F)nc2)CC1 [Example 177, 2-methyl-1-(4-(3-((6-(trifluoromethyl)pyridin-3-yl)amino)pyrazin-2-yl)piperazin-1-yl)prop-2-en-1-one] | > 20 µM | > 20000 nM
C/C=C/C(=O)N1CCN(c2nccnc2Nc2ccc(C(F)(F)F)nc2)CC1 [Example 178, (E)-1-(4-(3-((6-(trifluoromethyl)pyridin-3-yl)amino)pyrazin-2-yl)piperazin-1-yl)but-2-en-1-one] | 0.884 µM | 2.7 nM
O=C(C(O)CO)N1CCN(c2nccnc2Nc2ccc(C(F)(F)F)cc2)CC1 (centres unmarked) [Example 180, 2,3-dihydroxy-1-(4-(3-((4-(trifluoromethyl)phenyl)amino)pyrazin-2-yl)piperazin-1-yl)propan-1-one] | > 20 µM | > 20000 nM
N#C/C=C\C(=O)N1CCN(c2nccnc2Nc2ccc(C(F)(F)F)cc2)CC1 [Example 182, (Z)-4-oxo-4-(4-(3-((4-(trifluoromethyl)phenyl)amino)pyrazin-2-yl)piperazin-1-yl)but-2-enenitrile] | 0.034 µM | 1.2 nM
N#C/C=C/C(=O)N1CCN(c2nccnc2Nc2ccc(C(F)(F)F)nc2)CC1 [Example 183, (E)-4-oxo-4-(4-(3-((6-(trifluoromethyl)pyridin-3-yl)amino)pyrazin-2-yl)piperazin-1-yl)but-2-enenitrile] | 0.422 µM | 33.9 nM
N#C/C=C\C(=O)N1CCN(c2nccnc2Nc2ccc(C(F)(F)F)nc2)CC1 [Example 184, (Z)-4-oxo-4-(4-(3-((6-(trifluoromethyl)pyridin-3-yl)amino)pyrazin-2-yl)piperazin-1-yl)but-2-enenitrile] | 1.45 µM | 164 nM
CN(C#N)C(=O)N1CCN(c2nccnc2Nc2ccc(C(F)(F)F)cc2)CC1 [Example 185, N-cyano-N-methyl-4-(3-((4-(trifluoromethyl)phenyl)amino)pyrazin-2-yl)piperazine-1-carboxamide] | > 20 µM | > 20000 nM
C=C(CO)C(=O)N1CCN(c2nccnc2Nc2ccc(C(F)(F)F)cc2)CC1 [Example 186, 2-(hydroxymethyl)-1-(4-(3-((4-(trifluoromethyl)phenyl)amino)pyrazin-2-yl)piperazin-1-yl)prop-2-en-1-one] | > 20 µM | > 20000 nM
C=C(COC(C)=O)C(=O)N1CCN(c2nccnc2Nc2ccc(C(F)(F)F)cc2)CC1 [Example 187, 2-(4-(3-((4-(trifluoromethyl)phenyl)amino)pyrazin-2-yl)piperazine-1-carbonyl)allyl acetate] | 7.41 µM | 36600 nM
C=C(CF)C(=O)N1CCN(c2nccnc2Nc2ccc(C(F)(F)F)cc2)CC1 [Example 188, 2-(fluoromethyl)-1-(4-(3-((4-(trifluoromethyl)phenyl)amino)pyrazin-2-yl)piperazin-1-yl)prop-2-en-1-one] | 0.013 µM | 2.3 nM
O=C(COC(F)(F)F)N1CCN(c2nccnc2Nc2ccc(C(F)(F)F)cc2)CC1 [Example 190, 2-(trifluoromethoxy)-1-(4-(3-((4-(trifluoromethyl)phenyl)amino)pyrazin-2-yl)piperazin-1-yl)ethan-1-one] | 0.994 µM | 12.7 nM
C#CCN(CCOc1nccnc1Nc1ccc(C(F)(F)F)cc1)C(=O)C=C [Example 193, N-(prop-2-yn-1-yl)-N-(2-((3-((4-(trifluoromethyl)phenyl)amino)pyrazin-2-yl)oxy)ethyl)acrylamide] | > 20 µM | 203 nM
